# Measured values published in the OligoGym collection.
# HELM strings list units from the 5' end as sugar, base in round brackets, then linkage (d deoxyribose, r ribose, m 2'-O-methyl, p phosphodiester). Strings are as the collection lists them; they lack the last nucleoside at the 3' end of the tested compound. [moe] = 2'-O-(2-methoxyethyl) (MOE); [sp] = phosphorothioate linkage; [m5C] = 5-methylcytosine
# Target: ATXN3
# Test: mouse, dose not given
# Conditions: ASO
row,Substance,3 h FOB score [score 0-7]
1,RNA1{[moe](G)[sp].[moe](T)p.[moe](T)[sp].[moe](A)[sp].[moe](A)[sp].d(T)[sp].d(A)[sp].d([m5C])[sp].d(T)[sp].d(T)[sp].d(T)[sp].d(T)[sp].d(T)[sp].d([m5C])[sp].d([m5C])[sp].[moe](A)[sp].[moe](G)p.[moe]([m5C])[sp].[moe]([m5C])}$$$$ (last 3' nucleoside missing),1
2,RNA1{[moe](T)[sp].[moe](A)[sp].[moe](A)p.[moe](T)p.[moe](A)[sp].d([m5C])[sp].d(T)[sp].d(T)[sp].d(T)[sp].d(T)[sp].d(T)[sp].d([m5C])[sp].d([m5C])[sp].d(A)[sp].d(G)[sp].[moe]([m5C])p.[moe]([m5C])p.[moe](T)[sp].[moe](T)}$$$$ (last 3' nucleoside missing),1.5
3,RNA1{[moe](A)[sp].[moe](T)p.[moe](T)p.[moe](T)p.[moe](T)[sp].d([m5C])[sp].d(A)[sp].d(T)[sp].d(G)[sp].d(T)[sp].d(T)[sp].d([m5C])[sp].d([m5C])[sp].d(A)[sp].d(G)[sp].[moe](A)p.[moe](T)p.[moe]([m5C])[sp].[moe](A)}$$$$ (last 3' nucleoside missing),1
4,RNA1{[moe](A)[sp].[moe](G)[sp].[moe]([m5C])p.[moe]([m5C])p.[moe](A)[sp].d(A)[sp].d(T)[sp].d(A)[sp].d(T)[sp].d(T)[sp].d(T)[sp].d(A)[sp].d(T)[sp].d(A)[sp].d(G)[sp].[moe](G)p.[moe](T)p.[moe](G)[sp].[moe]([m5C])}$$$$ (last 3' nucleoside missing),1
5,RNA1{[moe](A)[sp].[moe]([m5C])p.[moe](T)p.[moe](G)p.[moe](G)[sp].d(T)[sp].d([m5C])[sp].d(A)[sp].d(G)[sp].d(T)[sp].d(T)[sp].d(T)[sp].d([m5C])[sp].d([m5C])[sp].d(T)[sp].[moe](A)p.[moe](A)p.[moe](T)[sp].[moe](T)}$$$$ (last 3' nucleoside missing),0
6,RNA1{[moe](T)[sp].[moe](G)p.[moe]([m5C])p.[moe](T)p.[moe]([m5C])p.[moe](A)p.d(T)[sp].d(T)[sp].d(T)[sp].d(A)[sp].d(T)[sp].d(T)[sp].d([m5C])[sp].d(T)[sp].d([m5C])[sp].d(A)[sp].[moe](A)p.[moe](G)[sp].[moe](T)}$$$$ (last 3' nucleoside missing),0
7,RNA1{[moe](A)[sp].[moe](G)p.[moe](T)p.[moe](G)p.[moe]([m5C])[sp].d(T)[sp].d(U)[sp].d(T)[sp].d(T)[sp].d([m5C])[sp].d(A)[sp].d(T)[sp].d(A)[sp].d([m5C])[sp].d([m5C])[sp].[moe](A)p.[moe](G)p.[moe](G)[sp].[moe](T)}$$$$ (last 3' nucleoside missing),0.75
8,RNA1{[moe](G)[sp].[moe](G)p.[moe]([m5C])p.[moe](A)p.[moe]([m5C])p.[moe](A)p.d(T)[sp].d(T)[sp].d(T)[sp].d(T)[sp].d(T)[sp].d(T)[sp].d(A)[sp].d(T)[sp].d(A)[sp].d(G)[sp].[moe](A)p.[moe](G)[sp].[moe](T)}$$$$ (last 3' nucleoside missing),1
9,RNA1{[moe](A)[sp].[moe](G)p.[moe](T)p.[moe](G)p.[moe]([m5C])[sp].d(T)[sp].d(A)[sp].d(T)[sp].d(A)[sp].d(A)[sp].d(T)[sp].d(T)[sp].d([m5C])[sp].d(T)[sp].d(T)[sp].[moe](G)p.[moe]([m5C])p.[moe](T)[sp].[moe](T)}$$$$ (last 3' nucleoside missing),0.25
10,RNA1{[moe](G)[sp].[moe]([m5C])p.[moe](A)p.[moe](T)p.[moe](A)p.[moe](T)p.d(T)[sp].d(G)[sp].d(G)[sp].d(T)[sp].d(T)[sp].d(T)[sp].d(T)[sp].d([m5C])[sp].d(T)[sp].d([m5C])[sp].[moe](A)p.[moe](T)[sp].[moe](T)}$$$$ (last 3' nucleoside missing),3
11,RNA1{[moe](G)[sp].[moe]([m5C])p.[moe](A)p.[moe]([m5C])p.[moe](A)p.[moe]([m5C])p.d(T)[sp].d(T)[sp].d(T)[sp].d([m5C])[sp].d([m5C])[sp].d(T)[sp].d([m5C])[sp].d([m5C])[sp].d(T)[sp].d([m5C])[sp].[moe](A)p.[moe](A)[sp].[moe](T)}$$$$ (last 3' nucleoside missing),0
12,RNA1{[moe](G)[sp].[moe](G)p.[moe]([m5C])p.[moe](A)p.[moe]([m5C])p.d(A)[sp].d(T)[sp].d(T)[sp].d(T)[sp].d(T)[sp].d(T)[sp].d(T)[sp].d(A)[sp].d(T)[sp].d(A)[sp].[moe](G)p.[moe](A)p.[moe](G)[sp].[moe](T)}$$$$ (last 3' nucleoside missing),1.25
13,RNA1{[moe](G)[sp].[moe]([m5C])p.[moe]([m5C])[sp].[moe](A)[sp].[moe](A)[sp].d(A)[sp].d(A)[sp].d(T)[sp].d(A)[sp].d([m5C])[sp].d(T)[sp].d(A)[sp].d(A)[sp].d([m5C])[sp].d(A)[sp].[moe](T)[sp].[moe]([m5C])p.[moe](A)[sp].[moe](G)}$$$$ (last 3' nucleoside missing),2.5
14,RNA1{[moe]([m5C])[sp].[moe]([m5C])p.[moe]([m5C])p.[moe](A)p.[moe](A)[sp].d(T)[sp].d(A)[sp].d(A)[sp].d(T)[sp].d([m5C])[sp].d(T)[sp].d(G)[sp].d(A)[sp].d([m5C])[sp].d(A)[sp].[moe](T)p.[moe]([m5C])p.[moe]([m5C])[sp].[moe](T)}$$$$ (last 3' nucleoside missing),1.5
15,RNA1{[moe]([m5C])[sp].[moe](A)p.[moe]([m5C])p.[moe]([m5C])p.[moe](A)[sp].d(T)[sp].d([m5C])[sp].d(T)[sp].d(T)[sp].d(T)[sp].d(G)[sp].d(A)[sp].d([m5C])[sp].d(A)[sp].d(A)[sp].[moe](G)p.[moe]([m5C])p.[moe](T)[sp].[moe](A)}$$$$ (last 3' nucleoside missing),1.25
16,RNA1{[moe](T)[sp].[moe](T)p.[moe](T)p.[moe]([m5C])p.[moe](A)p.d(T)[sp].d(G)[sp].d(T)[sp].d(T)[sp].d([m5C])[sp].d([m5C])[sp].d(A)[sp].d(G)[sp].d(A)[sp].d(T)[sp].[moe]([m5C])p.[moe](A)p.[moe]([m5C])[sp].[moe]([m5C])}$$$$ (last 3' nucleoside missing),1
17,RNA1{[moe]([m5C])[sp].[moe]([m5C])p.[moe](A)p.[moe](A)p.[moe](T)p.d(A)[sp].d(T)[sp].d(T)[sp].d(T)[sp].d(A)[sp].d(T)[sp].d(A)[sp].d(G)[sp].d(G)[sp].d(T)[sp].[moe](G)p.[moe]([m5C])p.[moe](T)[sp].[moe](G)}$$$$ (last 3' nucleoside missing),1.75
18,RNA1{[moe](T)[sp].[moe](G)p.[moe](T)p.[moe](T)p.[moe](A)[sp].d(A)[sp].d(T)[sp].d(A)[sp].d([m5C])[sp].d(T)[sp].d(T)[sp].d(T)[sp].d(T)[sp].d(T)[sp].d([m5C])[sp].[moe]([m5C])p.[moe](A)p.[moe](G)[sp].[moe]([m5C])}$$$$ (last 3' nucleoside missing),0
